Drawing on patent US8309558B2, “Compounds for the treatment of hepatitis C” (Bristol-Myers Squibb Company, priority 2008, dated 2012), this text covers IC50 and EC50 for 21 compounds.

The structures appear in SMILES notation. pEC50, pIC50: −log10 of the molar value. Read-outs that look alike come from different tables or passages of the source.

The pIC50 is −log10 of the IC50, conventionally taken in molar units. In general, pEC50 refers to −log10 of the EC50, conventionally taken in molar units.

Test [1] has as its target T1, HCV NS5B RdRp genotype 1b (Hepatitis C virus genotype 1b, UniProt Q9WMX2).
T1 construct: The protein was expressed with an 18 amino acid C-terminal truncation to enhance the solubility; made in house; host or cells: E. coli BL21(DE3), pET21a vector
Briefly: Standard HCV NS5B RdRp enzyme assay. The class given is biochemical. To be noted: HCV NS5B RdRp genotype 1b, read-out: IC50. In outline:
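C-terminally truncated (18 aa) genotype 1b NS5B from E. coli, 28 nM, with 6 nM polyA template, 180 nM biotinylated oligo-dT12 primer and 3H-UTP (0.29 μM total UTP). Hepes pH 7.5 buffer with 2% DMSO; 60 min at 30° C. EDTA stop, SPA read-out; IC50 from seven concentrations by four-parameter fit.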

The next test relates to HCV replicon cells. Briefly: HCV replicon FRET / luciferase assay (96-well plates). The format is cell-based. Particulars: Hepatitis C virus, HCV replicon, read-out: EC50. In outline:
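Replicon cells + titrated cpds, 37 °C CO2. Alamar blue for cytotoxicity, PBS rinse, then lysis reagent w/ 20 μM FRET peptide (EDANS/DABCYL), 150 mM NaCl; kinetic read ex340/em490, 20 cycles. Alt: Dual-Glo luciferase. EC50 = 50% drop in FRET/luciferase signal after background subtraction.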
Background: In antiviral work, replicon cells carry a viral genome segment that copies itself.

T1 sequence (Q9WMX2 2420-2992): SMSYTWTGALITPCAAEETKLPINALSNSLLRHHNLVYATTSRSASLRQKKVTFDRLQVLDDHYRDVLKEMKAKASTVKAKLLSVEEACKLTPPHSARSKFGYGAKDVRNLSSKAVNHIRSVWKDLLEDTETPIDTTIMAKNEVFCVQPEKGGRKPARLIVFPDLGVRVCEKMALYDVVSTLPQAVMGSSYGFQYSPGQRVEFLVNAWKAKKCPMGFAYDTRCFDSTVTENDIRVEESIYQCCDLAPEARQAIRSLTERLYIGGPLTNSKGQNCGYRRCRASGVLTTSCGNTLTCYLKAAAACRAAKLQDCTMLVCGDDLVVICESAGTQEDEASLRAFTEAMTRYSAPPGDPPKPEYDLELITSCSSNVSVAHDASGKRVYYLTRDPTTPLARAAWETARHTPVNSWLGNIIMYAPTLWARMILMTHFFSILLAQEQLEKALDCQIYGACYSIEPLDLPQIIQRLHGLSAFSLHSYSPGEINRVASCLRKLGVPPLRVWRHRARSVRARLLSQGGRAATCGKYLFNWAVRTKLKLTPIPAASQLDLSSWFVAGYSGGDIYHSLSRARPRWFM

In the case of `CNC(=O)c1c(-c2ccc(F)cc2)oc2ccc(-c3cccc(C(=O)O)c3OC)cc12`, the negative-log IC50 (pIC50) in test [1] (untitled table after Table 1b) was 5.32. Moreover, the negative-log EC50 (pEC50) with HCV replicon cells (untitled table after Table 1b, values without asterisk) is 4.88.
For `CNC(=O)c1c(-c2ccc(F)cc2)oc2ccc(-c3cc(C(=O)NC4(c5cccc(C)c5)CC4)c(OC)cc3C)cc12`, the pIC50 in test [1] (Table 1d (class symbols)) is 6.60 to 9.00. Further, the pEC50 in the test on HCV replicon cells (24 h, Table 1d (class symbols)) was 6.60 to 9.00.
With `CNC(=O)c1c(-c2ccc(F)cc2)oc2ccc(-c3cc(C(=O)NC4(c5cn(C)cn5)CC4)ccc3C)cc12`, the negative logarithm of the IC50 (pIC50) in test [1] (Table 1d (class symbols)) was greater than 7.70. The pEC50 with HCV replicon cells (24 h, Table 1d (class symbols)) was 6.60 to 9.00.
On to `CNC(=O)c1c(-c2ccc(F)cc2)oc2ccc(-c3cc(C(=O)NC4(c5ocnc5C)CC4)c(OC)cc3C)cc12`, for which the pIC50 in test [1] (Table 1d (class symbols)) is 6.60 to 9.00. Also, the negative-log EC50 (pEC50) in the test with HCV replicon cells (24 h, Table 1d (class symbols)) is 6.60 to 9.00.
Regarding `CNC(=O)c1c(-c2ccc(F)cc2)oc2ccc(-c3cc(C(=O)NC4(c5ncc(C)o5)CC4)c(OC)cc3C)cc12`, the pIC50 in test [1] (Table 1d (class symbols)) is greater than 7.70. Further, the pEC50 with HCV replicon cells (24 h, Table 1d (class symbols)) was 6.60 to 9.00.
As to `CNC(=O)c1c(-c2ccc(F)cc2)oc2ccc(-c3cc(C(=O)NC4(c5ccccn5)CC4)c(OCC(N)=O)cc3C)cc12`, the pIC50 in test [1] (Table 1d (class symbols)) was greater than 7.70. Moreover, the pEC50 in the test on HCV replicon cells (24 h, Table 1d (class symbols)) was 6.60 to 9.00.
In the case of `CCOc1cc(C)c(-c2ccc3oc(-c4ccc(F)cc4)c(C(=O)NC)c3c2)cc1C(=O)NC1(c2ccccn2)CC1`, in test [1] (Table 1d (class symbols)), the pIC50 is 6.60 to 9.00. Besides, the negative-log EC50 (pEC50) in the test on HCV replicon cells (24 h, Table 1d (class symbols)) is 6.60 to 9.00.
For `CCCOc1cc(C)c(-c2ccc3oc(-c4ccc(F)cc4)c(C(=O)NC)c3c2)cc1C(=O)NC1(c2ccccn2)CC1`, in test [1] (Table 1d (class symbols)), the pIC50 is 6.60 to 9.00. Also, the negative-log EC50 (pEC50) with HCV replicon cells (24 h, Table 1d (class symbols)) was 6.60 to 9.00.
As to `CNC(=O)c1c(-c2ccc(F)cc2)oc2ccc(-c3cc(C(=O)NC4(c5ccccn5)CC4)c(OCC(C)C)cc3C)cc12`, the pIC50 in test [1] (Table 1d (class symbols)) was 6.60 to 9.00. Further, in the test with HCV replicon cells (24 h, Table 1d (class symbols)), the negative-log EC50 (pEC50) was 6.60 to 9.00.
With `CNC(=O)c1c(-c2ccc(F)cc2)oc2ccc(-c3cc(C(=O)NC4(c5ccccn5)CC4)c(OCC4CC4)cc3C)cc12`, the pIC50 in test [1] (Table 1d (class symbols)) was 6.60 to 9.00. Besides, in the test on HCV replicon cells (24 h, Table 1d (class symbols)), the negative-log EC50 (pEC50) was 6.60 to 9.00.
Take `CNC(=O)c1c(-c2ccc(F)cc2)oc2ccc(-c3cc(C(=O)NC4(c5ccccn5)CC4)c(OCCC(N)=O)cc3C)cc12`: in test [1] (Table 1d (class symbols)), the negative-log IC50 (pIC50) is greater than 7.70. For the same compound, the pEC50 in the test on HCV replicon cells (24 h, Table 1d (class symbols)) is 6.60 to 9.00.
As for `CNC(=O)c1c(-c2ccc(F)cc2)oc2ccc(-c3cc(C(=O)NC4(c5cnc(C)cn5)CC4)ccc3C)c(F)c12`, the negative logarithm of the IC50 (pIC50) in test [1] (Table 1d (class symbols)) was 6.60 to 9.00. For the same compound, the pEC50 in the test with HCV replicon cells (24 h, Table 1d (class symbols)) was 6.60 to 9.00.
Regarding `C#CCOc1cc(C)c(-c2ccc3oc(-c4ccc(F)cc4)c(C(=O)NC)c3c2)cc1C(=O)NC1(c2ccccn2)CC1`, in test [1] (Table 1d (class symbols)), the pIC50 was 6.60 to 9.00. In addition, in the test with HCV replicon cells (24 h, Table 1d (class symbols)), the pEC50 is 6.60 to 9.00.
As for `CNC(=O)c1c(-c2ccc(F)cc2)oc2ccc(-c3cc(C(=O)NC4(c5cnccn5)CC4)c(OC)cc3C)cc12`, in test [1] (Table 1d (class symbols)), the pIC50 is 6.60 to 9.00. Moreover, the negative logarithm of the EC50 (pEC50) in the test on HCV replicon cells (24 h, Table 1d (class symbols)) is 6.60 to 9.00.
Take `CNC(=O)c1c(-c2ccc(F)cc2)oc2ccc(-c3cccc(C(=O)NC4(c5ccccc5)CC4)c3)cc12` [drawing 67]: in test [1] (Table 1a), the pIC50 was greater than 6.60. Also, the pEC50 in the test with HCV replicon cells (Table 1a) was greater than 6.60.
Take `CNC(=O)c1c(-c2ccc(F)cc2)oc2cc(N)c(-c3cccc(C(=O)NC(C)(C)c4ccccc4)c3)cc12` [drawing 94]: the pIC50 in test [1] (Table 1a) is greater than 6.60. Moreover, in the test on HCV replicon cells (Table 1a), the pEC50 is greater than 6.60.
Consider `CNC(=O)c1c(-c2ccc(F)cc2)oc2ccc(-c3cc(C(=O)NC4(c5ccccc5)CC4)ccc3F)cc12` [drawing 100], for which, in test [1] (Table 1a), the negative-log IC50 (pIC50) is greater than 6.60. Also, the negative logarithm of the EC50 (pEC50) in the test with HCV replicon cells (Table 1a) is greater than 6.60.
`CNC(=O)c1c(-c2ccc(F)cc2)oc2ccc(-c3cccc(C(=O)NCCOC)c3)cc12` [drawing 182]: the pIC50 in test [1] (Table 1a) is 5.00 to 6.00. The negative-log EC50 (pEC50) in the test with HCV replicon cells (Table 1a) was 5.00 to 6.00.
Regarding `CNC(=O)c1c(-c2ccc(F)cc2)oc2ccc(-c3cccc(C(=O)N(C)CCC#N)c3)cc12` [drawing 204], the negative-log IC50 (pIC50) in test [1] (Table 1a) is 6.00 to 6.60. In the test on HCV replicon cells (Table 1a), the pEC50 is 5.00 to 6.00.
Turning to `CNC(=O)c1c(-c2ccc(F)cc2)oc2ccc(-c3cccc(C(=O)N4CCCCC4C)c3)cc12` (stereo not drawn) [drawing 208], the negative-log IC50 (pIC50) in test [1] (Table 1a) was 6.00 to 6.60. The pEC50 in the test on HCV replicon cells (Table 1a) was 5.00 to 6.00.
Taken in the same sequence, the figures for `CCC[C@H](CO)NC(=O)c1cccc(-c2ccc3oc(-c4ccc(F)cc4)c(C(=O)NC)c3c2)c1` [drawing 228] were 5.00 to 6.00 and 5.00 to 6.00.
